Laboratory results from US20090131508A1, “Use of 2-Oxo-1-Pyrrolidone Derivatives for the Preparation of a Drug” (UCB PHARMA, S.A., priority 2005, published 2009).
“Also recorded” adds a separate entry of the source. Where two headings read alike, the source gives them in different places.

What was measured:
epilepsy = conditions: A. J. Gower et al., Eur. J. Pharmacol., 222, (1992), 193-203; cited from earlier work
[1] = system: post-hypoxic myoclonus (auditory stimulus-induced myoclonic jerks); experiment: rat cardiac arrest model of post-hypoxic myoclonus; type: in vivo, male Sprague-Dawley rats; conditions: ip at 10, 30, 100 and 300 mg/kg, 48 hours after cardiac arrest; myoclonus score over 3 hours
Description: Brivaracetam is evaluated in a rat model of post-hypoxic myoclonus [Truong et al. (1994) Novel rat cardiac arrest model of post-hypoxic myoclonus. Mov. Disord. 9:201-206]. In this model, male Sprague-Dawley rats are subjected to mechanical-induced cardiac arrest for a short duration of time during which cerebral hypoxic insults are induced.
All surgical procedures are performed under deep anaesthesia (ketamine 85 mg/kg ip and xylazine 15 mg/kg ip). The cardiac arrest is initiated and maintained for a duration of 8 minutes by mechanically obstructing all the major cardiac blood vessels including the aorta by hooking up the vessels with an L-shaped loop inserted into the rat body cavity. […]
These animals show jerking movements in response to auditory stimuli and other features of myoclonus that are similar to those observed in human condition. […] The involuntary muscle jerks in response to each stimulus are scored as follows: 0=no jerks; 1=ear twitch; 2=ear and body jerk; 3=ear, head and shoulder jerk; 4=whole body jerk; and 5=whole body jerk with jumping.
Antimyoclonic activity of Brivaracetam, administered ip at 10, 30, 100 and 300 mg/kg, is evaluated 48 hours after the cardiac arrest. The myoclonus score is recorded at 30 min interval over a period of 3 hours after dosing, in groups of 6 rats per dose.

DMCM-induced seizures = experiment: threshold for DMCM-induced seizures in mice; type: in vivo, male NMRI mice; conditions: for Clonic convulsion DMCM threshold dose / First myoclonic jerks DMCM threshold dose: mean ± S.D.
Description: The effect of Brivaracetam on the threshold for DMCM-induced seizures is evaluated in male NMRI mice (25-35 g; N=10 per group). The threshold for induction of myoclonic jerks and clonic convulsions in all four extremities is determined by infusing a concentration of 0.5 mg/ml DMCM into the tail vein of unrestrained freely moving mice at a rate of 0.25 ml/min with an infusion pump and a maximum duration of infusion of 2 min. Saline or different doses of Brivaracetam are administered 30 min before DMCM infusion.

[2] = system: maximal electroshock seizures (MES); experiment: maximal electroshock seizures (MES) in mice; type: in vivo, male NMRI mice; conditions: i.p. -30 min, 95% confidence interval in parentheses
Description: (§1) The effect of Brivaracetam against maximal electroshock seizures (MES) and pentylenetetrazol (PTZ) seizures is evaluated in male NMRI mice (20-30 g; N=10 per group). MES is induced through corneal electrodes delivering a current of 50 mA for a duration 0.2 s inducing tonic hind limb extension in 100% of saline-treated animals.
(§2) PTZ is administered at a dose of 89 mg/kg s.c. which represents a dose inducing clonic convulsions of all four extremities in 97% of saline-treated animals. The mice are pre-treated with either saline or different doses of Brivaracetam (i.p. adm., −30 min.) and the proportion of mice protected against seizures is recorded.

[3] = system: pentylenetetrazol (PTZ) seizures; experiment: pentylenetetrazol (PTZ) seizures in mice; type: in vivo, male NMRI mice; conditions: PTZ 89 mg/kg s.c., i.p. -30 min, 95% confidence interval in parentheses
Description: as §1, §2

[4] = system: spontaneous spike-and-wave discharges (SWDs); experiment: spike-and-wave discharges in Genetic Absence Epilepsy Rats from Strasbourg; type: in vivo, male rats from the Genetic Absence Epilepsy Rat Strain; conditions: 95% confidence interval in parentheses
Description: Male rats from the Genetic Absence Epilepsy Rat Strain are implanted with four platinum electrodes into the left and right frontal cortex and left and right occipital cortex, under pentobarbital anaesthesia. Cortical, spontaneous spike-and-wave discharges (SWDs) are recorded bilaterally from the rats placed into Plexiglass boxes, and prevented for falling asleep by gentle sensory stimulation. After a 20-min habituation period, the rats are injected i.p. with either saline or different doses of Brivaracetam and the EEG recorded continuously over consecutive 20-min intervals up to 120 min. The cumulative duration of the SWDs is calculated.

kindled seizures = experiment: amygdala kindling in rats; type: in vivo, male Sprague-Dawley rats; conditions: i.p. -60 min, 95% confidence interval in parentheses
Description: The effect of brivaracetam on kindled seizures is evaluated in male Sprague-Dawley rats (250-350 g) implanted with a bipolar stimulation/recording electrode into the right basolateral amygdala [AP-2.3, L-4.8, V-8.5 (Paxinos and Watson, 1982)], under pentobarbital anaesthesia. Kindling is induced by once daily stimulation, 5 days per week, with 500 μA monophasic square wave pulses, 50 Hz for 1 s (Löscher et al., 1986). The animals are considered kindled after the appearance of at least 10 consecutive stage 4 or 5 seizures according to the scale of Racine (Racine, 1972). Fully kindled rats (N=8 per group) are stimulated once with the same stimulation parameters as above after administration of saline (i.p., −60 min).
This procedure is repeated two days later, after pre-treatment with either saline or different doses of Brivaracetam (i.p., −60 min).
The behavioural effect of stimulation is graded according to the scale of Racine and the proportion of rats protected against generalised motor seizures (stage <3) is recorded.

audiogenic seizures = audiogenic seizures in sound-sensitive mice; type: in vivo, male genetically sound-sensitive mice; conditions: i.p. -30 min, 95% confidence interval in parentheses
Description: Brivaracetam is tested in male genetically sound-sensitive mice (16-28 g; N=10 per group) responding with wild running, clonic and tonic convulsions to an acoustic stimulation. Audiogenic seizures are induced by an acoustic stimulus (90 dB, 10-20 kHz) applied for 30 s. The mice are pre-treated with either saline or different doses of Brivaracetam (i.p. adm., −30 min.) and the proportion of mice protected against both clonic and tonic convulsions is used as the end point to assess anticonvulsant activity.

[5] = system: photoparoxysmal EEG response (PPR); experiment: photoparoxysmal EEG response (PPR) study in photosensitive epileptic subjects; type: in vivo, human (Caucasian subjects with photosensitive epilepsy); conditions: for Duration of response, Median (Range) / Time to first response, Median (Range): eye-closure condition, response = SPR change of at least 3 frequency steps
Description: (§3) The aim of the placebo-controlled, single blind, multi-centre study is to explore the photoparoxysmal EEG (Electroencephalogram) response (PPR) in photosensitive epileptic subjects after one single oral dose (10, 20, 40 and 80 mg) of brivaracetam (BRV).
(§4) In the study, nineteen Caucasian subjects with photosensitive epilepsy (15 females, 4 males) with stable PPR in at least one eye condition (eyes open, eyes closed, eye closure) are enrolled. During a 3-day period, subjects underwent standardized intermittent photic stimulation (IPS) at different frequencies to define the standard photosensitivity range (SPR) in frequency steps per subject at fixed time points over the day: predose (−0.5 h) and postdose (1, 2, 4, 6, 8, 24, 28, 32, 48, and 72 h). After the placebo baseline day (day 1), single oral doses of BRV are given, starting at 80 mg, with subsequent lowering or increasing of the dose depending on the results per 4 subjects.
A total of 18 subjects are evaluable. One subject appeared to be no longer sensitive on the baseline day and is therefore not evaluable. Under placebo administration almost no SPR changes from pre-dose in “eye-closure” condition are observed. Important SPR changes or even complete abolishment of the photosensitivity windows are observed after BRV administration at all tested doses.
Descriptive statistics (N, Median (range)) for time to first response and duration of response in “eye-closure” condition are given in the Table 3 below. Response is defined as a SPR change of at least 3 frequency steps.

[6] = plasma levels of brivaracetam in the PPR study; type: in vivo; conditions: human
Description: as §3, §4
Median time to first response is 0.5 hours for all doses, and median duration of response is approximately 28 hours after 10, 20, or 40 mg BRV. The median duration is longer after 80 mg BRV (59.5 h). Time to maximal reduction in SPR is dose related: 1.5, 1.0, 1.0, and 0.5 hours, respectively, for 10, 20, 40, and 80 mg BRV. Plasma levels of brivaracetam (BRV) reach a peak at approximately 2.0 hours. T1/2 is about 8.5 hours. Effect of BRV is still frequently observable with BRV plasma levels below the lower level of quantification.

[7] = 80 mg single oral dose, listed as BRV
[8] = all single doses (10, 20, 40, and 80 mg)

Compound: CC[C@H](C(N)=O)N1CCCC1=O [(R)-(+)-α-ethyl-2-oxo-1-pyrrolidine-acetamide]
- Activity in the treatment of epilepsy (epilepsy): completely devoid of activity

Compound: CCC[C@@H]1CC(=O)N([C@@H](CC)C(N)=O)C1 [Brivaracetam, (2S)-2-[(4R)-2-oxo-4-propylpyrrolidinyl]butanamide]
- Antimyoclonic activity [1]: active
- Clonic convulsion DMCM threshold, change vs control (DMCM-induced seizures; Brivaracetam 2.1 mg/kg IP): +46%
- First myoclonic jerks DMCM threshold, change vs control (DMCM-induced seizures; Brivaracetam 2.1 mg/kg IP): +6%
- Clonic convulsion DMCM threshold dose (DMCM-induced seizures; Brivaracetam 2.1 mg/kg IP): 3.34 ± 0.93 mg/kg
- First myoclonic jerks DMCM threshold dose (DMCM-induced seizures; Brivaracetam 2.1 mg/kg IP): 1.05 ± 0.14 mg/kg
- Clonic convulsion DMCM threshold, change vs control (DMCM-induced seizures; Brivaracetam 6.8 mg/kg IP): +104%
- First myoclonic jerks DMCM threshold, change vs control (DMCM-induced seizures; Brivaracetam 6.8 mg/kg IP): +11%
- Clonic convulsion DMCM threshold dose (DMCM-induced seizures; Brivaracetam 6.8 mg/kg IP): 4.68 ± 2.21 mg/kg
- First myoclonic jerks DMCM threshold dose (DMCM-induced seizures; Brivaracetam 6.8 mg/kg IP): 1.10 ± 0.16 mg/kg
- Clonic convulsion DMCM threshold, change vs control (DMCM-induced seizures; Brivaracetam 21.2 mg/kg IP): +183%
- First myoclonic jerks DMCM threshold, change vs control (DMCM-induced seizures; Brivaracetam 21.2 mg/kg IP): +26%
- Clonic convulsion DMCM threshold dose (DMCM-induced seizures; Brivaracetam 21.2 mg/kg IP): 6.47 ± 2.82 mg/kg
- First myoclonic jerks DMCM threshold dose (DMCM-induced seizures; Brivaracetam 21.2 mg/kg IP): 1.25 ± 0.14 mg/kg
- Clonic convulsion DMCM threshold, change vs control (DMCM-induced seizures; Brivaracetam 67.9 mg/kg IP): +182%
- First myoclonic jerks DMCM threshold, change vs control (DMCM-induced seizures; Brivaracetam 67.9 mg/kg IP): +32%
- Clonic convulsion DMCM threshold dose (DMCM-induced seizures; Brivaracetam 67.9 mg/kg IP): 6.46 ± 3.16 mg/kg
- First myoclonic jerks DMCM threshold dose (DMCM-induced seizures; Brivaracetam 67.9 mg/kg IP): 1.31 ± 0.17 mg/kg
- Clonic convulsion DMCM threshold, change vs control (DMCM-induced seizures; Brivaracetam 212.3 mg/kg IP): +213%
- First myoclonic jerks DMCM threshold, change vs control (DMCM-induced seizures; Brivaracetam 212.3 mg/kg IP): +36%
- Clonic convulsion DMCM threshold dose (DMCM-induced seizures; Brivaracetam 212.3 mg/kg IP): 7.16 ± 2.98 mg/kg
- First myoclonic jerks DMCM threshold dose (DMCM-induced seizures; Brivaracetam 212.3 mg/kg IP): 1.35 ± 0.17 mg/kg
- Protective effect ED50 value, tonic hind limb extension [2]: 113 (89-136) mg/kg i.p.
- Protective effect ED50 value, clonic convulsions [3]: 30 (10-87) mg/kg i.p.
- Protective effect ED50 value, duration of spike-and-wave discharges over 2 hours [4]: 2.6 (0.85-8.1) mg/kg i.p.
- Protective effect ED50 value, secondary generalised seizures (kindled seizures): 44 (24-84) mg/kg i.p.
- Protective effect ED50 value, clonic convulsions (audiogenic seizures): 2.4 (1.4-4.0) mg/kg i.p.
- Protective effect ED50 value, tonic convulsions (audiogenic seizures): 1.4 (0.9-2.1) mg/kg i.p.
- Time to maximal reduction in SPR ([5]; 10 mg single oral dose): 1.5 h
- Duration of response, Median (Range) ([5]; 10 mg single oral dose): 29.3 (7.5; 31.5) h
- Time to first response, Median (Range) ([5]; 10 mg single oral dose): 0.5 (0.5; 1.0) h
- Patients with abolishment of EEG response ([5]; 10 mg single oral dose, reduction in the fourth patient): three out of four
- Time to maximal reduction in SPR ([5]; 20 mg single oral dose): 1.0 h
- Duration of response, Median (Range) ([5]; 20 mg single oral dose): 27.5 (23.0; 31.5) h
- Time to first response, Median (Range) ([5]; 20 mg single oral dose): 0.5 (0.5; 1.0) h
- EEG response in all (evaluable) subjects ([5]; 20 mg single oral dose, listed as BRV): abolished; also recorded: complete suppression
- Time to maximal reduction in SPR ([5]; 40 mg single oral dose): 1.0 h
- Duration of response, Median (Range) ([5]; 40 mg single oral dose): 27.0 (23.5; 47.5) h
- Time to first response, Median (Range) ([5]; 40 mg single oral dose): 0.5 (0.5; 1.0) h
- Time to maximal reduction in SPR ([5]; 80 mg single oral dose): 0.5 h
- Duration of response, Median (Range) ([5]; 80 mg single oral dose): 59.5 (27.5; 71.5) h
- Time to first response, Median (Range) ([5]; 80 mg single oral dose): 0.5 (0.5; 0.5) h
- Duration of response, Median (Range) [5, 7]: 59.5 h
- EEG response in all (evaluable) subjects [5, 7]: abolished; also recorded: complete suppression
- Median duration of response ([5]; after 10, 20, or 40 mg single oral dose): approximately 28 hours
- Median time to first response ([5]; all doses (10, 20, 40, 80 mg single oral dose)): 0.5 h
- Safety and tolerability ([5]; all doses (10, 20, 40, 80 mg single oral dose), human subjects): safe and well tolerated
- Subjects with abolished photoparoxysmal EEG response [5, 8]: 78%
- Subjects with reduced photoparoxysmal EEG response [5, 8]: 94%
- half-life ([6]; both sexes, plasma, single oral dose, read-out: T1/2 (converted)): ~8.5 h
- half-life ([6]; in vivo, stated as basis of expected effect duration, read-out: half-life of the compound (converted)): ~7.7 h
- Time of peak plasma levels ([6]; single oral dose): approximately 2.0 hours
